Data as given in patent US20140018242A1, “METHOD OF CROP ENHANCEMENT” (SYNGENTA PARTICIPATIONS AG, priority 2010, published 2014).

Assays:
Soybeans (Glycine max) = experiment: Seed application on soybeans in pouch, plant growth effects (shoot length, root system); type: in vivo; settings: 14 days, additional growth vs blank formulation check
Experimental: The formulated test compounds were added to a defined amount of water. This solution was applied into a pouch which was previously equipped with a filter paper. After the application soybean seeds were sown into the upper fault of the filter paper. The prepared pouches were then incubated for 14 days at 25° C. and a relative humidity of 65% with a photo period of 16 h. The evaluation was made by assessing the shoot length and the root system. Data represent the average of 10 replicates (1seed/plant per pouch).

[1] = test system: French beans (Phaseolus vulgaris); experiment: Soil application to French beans, effects on flowering (BBCH) and plant physiology (NDVI, NIR); type: in vivo; set-up: NIR (Near infrared band reflectance): unit not given here; settings: 0.01 mg AI per plant drench, mean of 4 reps; for BBCH (plant growth stage): 15DAA, check 57; for NDVI (Normalized difference vegetative index) / NIR (Near infrared band reflectance): 25DAA; for NDVI (Normalized difference vegetative index): check 0.431; for NIR (Near infrared band reflectance): check 4.32
Experimental: Four two week old French bean plants were treated with 0.01 mg Al per plant as soil application (drench). Plants were kept under glasshouse conditions at 22° C. with a photo-period of 14 h. 15DAA the development stage of blossoms was assessed. 25DAA the photosynthetic capacity of plants (NDVI, NIR) was measured.

melting point | Compound | Mean shoot height increase (%) (Soybeans (Glycine max); AI concentration 5 ppm) | Mean shoot height increase in cm (Soybeans (Glycine max); AI concentration 5 ppm) [cm] | also measured
96 to 110 °C | CCOC(=O)OC1=C(c2cc(C)ccc2C)C(=O)N(C)C12CCN(OC)CC2 [Compound P1.1] |  |  | 
101 to 103 °C | CCOC(=O)OC1=C(c2c(C)cc(C)cc2C)C(=O)N(CC)C12CCN(OC)CC2 [Compound P1.8] |  |  | 
158 to 159 °C | CCOC(=O)OC1=C(c2cc(C)c(C)cc2Br)C(=O)N(C)C12CCN(OC)CC2 [Compound P1.20] |  |  | 
149 to 150 °C | CCOC(=O)OC1=C(c2cc(C)c(C)cc2Cl)C(=O)N(C)C12CCN(OC)CC2 [Compound P1.22] |  |  | 
93 to 95 °C | COCON1C(=O)C(c2cc(C)ccc2C)=C(OC(=O)CC(C)(C)C)C12CCN(OC)CC2 [Compound P1ii.5] |  |  | 
91 to 93 °C | COCON1C(=O)C(c2cc(C)ccc2C)=C(OC)C12CCN(OC)CC2 [Compound P1ii.31] |  |  | 
116 to 119 °C | CCOC(=O)OC1=C(c2c(F)ccc(C)c2Cl)C(=O)N(OCOC)C12CCN(OC)CC2 [Compound P1ii.61] |  |  | 
122 to 125 °C | CCOC(=O)OC1=C(c2c(C)cc(Cl)cc2C)C(=O)N(OC)C12CCN(OC)CC2 [Compound P1ii.114] |  |  | 
121 to 123 °C | CON1CCC2(CC1)C(O)=C(c1cc(C)ccc1C)C(=O)N2C [Compound P2.1] |  |  | 
223 to 225 °C | CON1CCC2(CC1)C(O)=C(c1c(C)cc(C)cc1C)C(=O)N2CC1CC1 [Compound P2.8, 1-Cyclopropylmethyl-4-hydroxy-8-methoxy-3-(2,4,6-trimethyl-phenyl)-1,8-diaza-spiro[4.5]dec-3-en-2-one] |  |  | 
218 to 221 °C | CCN1C(=O)C(c2c(C)cc(C)cc2C)=C(O)C12CCN(OC)CC2 [Compound P2.11] |  |  | 
191 to 193 °C | CON1CCC2(CC1)C(O)=C(c1cc(C)c(C)cc1Br)C(=O)N2C [Compound P2.23] |  |  | 
183 to 186 °C | CON1CCC2(CC1)C(O)=C(c1cc(C)c(C)cc1C)C(=O)N2C [Compound P2.25] |  |  | 
191 to 192 °C | CON1CCC2(CC1)C(O)=C(c1cc(C)c(C)cc1Cl)C(=O)N2C [Compound P2.26, 3-(2-Chloro-4,5-dimethyl-phenyl)-4-hydroxy-8-methoxy-1-methyl-1,8-diaza-spiro[4.5]dec-3-en-2-one] |  |  | 
182 to 183 °C | CON1CCC2(CC1)C(O)=C(c1cc(Br)c(C)cc1C)C(=O)N2C [Compound P2.28] |  |  | 
128 °C (dec.) | COCON1C(=O)C(c2c(C)cc(-c3ccc(Cl)cc3)cc2C)=C(O)C12CCN(OC)CC2 [Compound P2ii.15, 3-(4′-Chloro-3,5-dimethyl-biphenyl-4-yl)-4-hydroxy-8-methoxy-1-methoxymethoxy-1,8-diaza-spiro[4.5]dec-3-en-2-one] |  |  | 
135 to 137 °C | CON1CCC2(CC1)C(O)=C(c1c(C)cc(C)cc1C)C(=O)N2OCCOC1CCCCO1 (centres unmarked) [Compound P2ii.22] |  |  | 
155 to 158 °C | COCON1C(=O)C(c2c(F)ccc(C)c2Cl)=C(O)C12CCN(OC)CC2 [Compound P2ii.60] |  |  | 
63 to 64 °C | COCCON1C(=O)C(c2cc(Br)c(C)cc2C)=C(O)C12CCN(OC)CC2 [Compound P2ii.73] |  |  | 
86 to 87 °C | CON1CCC2(CC1)C(O)=C(c1cc(Br)c(C)cc1C)C(=O)N2OC [Compound P2ii.75] |  |  | 
71 to 74 °C | COCCON1C(=O)C(c2cc(Br)c(F)cc2C)=C(O)C12CCN(OC)CC2 [Compound P2ii.87] |  |  | 
64 to 67 °C | COCON1C(=O)C(c2cc(Br)c(F)cc2C)=C(O)C12CCN(OC)CC2 [Compound P2ii.89] |  |  | 
169 to 172 °C | CON1CCC2(CC1)C(O)=C(c1c(C)cc(C)cc1C)C(=O)N2OCC1CCCCC1 [Compound P2ii.96] |  |  | 
161 to 164 °C | COCCON1C(=O)C(c2c(C)cc(Cl)cc2C)=C(O)C12CCN(OC)CC2 [Compound P2ii.101] |  |  | 
88 to 92 °C | CON1CCC2(CC1)C(O)=C(c1c(C)cc(Cl)cc1C)C(=O)N2OC [Compound P2ii.102] |  |  | 
176 to 178 °C | COCON1C(=O)C(c2c(C)cc(Cl)cc2C)=C(O)C12CCN(OC)CC2 [Compound P2ii.104] |  |  | 
137 to 139 °C | CON1CCC2(CC1)C(O)=C(c1c(C)cc(Cl)cc1C)C(=O)N2OC1CCCO1 (centres unmarked) [Compound P2ii.105] |  |  | 

The remaining lines, values behind:

Compound | melting point | Mean shoot height increase (%) (Soybeans (Glycine max); AI concentration 5 ppm) | Mean shoot height increase in cm (Soybeans (Glycine max); AI concentration 5 ppm) [cm] | also measured
CCOC(=O)OC1=C(c2c(C)cc(C)cc2C)C(=O)N(C)C12CCN(OC)CC2 [Compound P1.2, Carbonic acid ethyl ester 8-methoxy-1-methyl-2-oxo-3-(2,4,6-trimethyl-phenyl)-1,8-diaza-spiro[4.5]dec-3-en-4-yl ester] |  | 8.5 | 1.7 | 
CCOC(=O)OC1=C(c2c(C)cc(Br)cc2C)C(=O)N(C)C12CCN(OC)CC2 [Compound P1.12] |  | 16.0 | 3.8 | 
CCOC(=O)OC1=C(c2c(C)ccc(C)c2C)C(=O)N(C)C12CCN(OC)CC2 [Compound P1.21] |  | 24.5 | 5.8 | 
CCOC(=O)OC1=C(c2c(C)cc(C)cc2C)C(=O)N(OCC)C12CCN(OC)CC2 [Compound P1ii.15] |  | 38.9 | 3.8 | 
CCOC(=O)OC1=C(c2cc(C)c(C)cc2C)C(=O)N(OCOC)C12CCN(OC)CC2 [Compound P1ii.56] |  | 7.2 | 1.7 | 
CCOC(=O)OC1=C(c2cc(C)c(C)cc2C)C(=O)N(OC)C12CCN(OC)CC2 [Compound P1ii.57] |  | 10.2 | 2.4 | 
CON1CCC2(CC1)C(O)=C(c1c(C)cc(C)cc1C)C(=O)N2C [Compound P2.2, 4-hydroxy-8-methoxy-1-methyl-3-(2,4,6-trimethyl-phenyl)-1,8-diaza-spiro[4.5]dec-3-en-2-one] |  |  |  | Mean shoot height increase (%) (Soybeans (Glycine max); AI concentration 4 ppm): 7.2%; Mean shoot height increase in cm (Soybeans (Glycine max); AI concentration 4 ppm): 1.4 cm
CON1CCC2(CC1)C(O)=C(c1c(C)cc(C)cc1C)C(=O)N2C [Compound T1.070] |  |  |  | BBCH (plant growth stage) [1]: 59; NDVI (Normalized difference vegetative index) [1]: 0.418; NIR (Near infrared band reflectance) [1]: 3.81
CON1CCC2(CC1)NC(=O)C(c1cc(C)ccc1C)=C2O [Compound T1iii.030] |  |  |  | BBCH (plant growth stage) [1]: 58; NDVI (Normalized difference vegetative index) [1]: 0.486; NIR (Near infrared band reflectance) [1]: 4.98
CON1CCC2(CC1)NC(=O)C(c1c(C)cc(C)cc1C)=C2O [Compound T1iii.70] |  |  |  | BBCH (plant growth stage) [1]: 58; NDVI (Normalized difference vegetative index) [1]: 0.443; NIR (Near infrared band reflectance) [1]: 4.92
COCON1C(=O)C(c2cc(C)ccc2C)=C(O)C12CCN(OC)CC2 [Compound T20ii.030] |  |  |  | BBCH (plant growth stage) [1]: 58; NDVI (Normalized difference vegetative index) [1]: 0.427; NIR (Near infrared band reflectance) [1]: 4.07
COCON1C(=O)C(c2c(C)cc(C)cc2C)=C(O)C12CCN(OC)CC2 [Compound T20ii.070] |  |  |  | BBCH (plant growth stage) [1]: 58; NDVI (Normalized difference vegetative index) [1]: 0.518; NIR (Near infrared band reflectance) [1]: 4.59
COCCON1C(=O)C(c2c(C)cc(C)cc2C)=C(O)C12CCN(OC)CC2 [Compound T22ii.070] |  |  |  | BBCH (plant growth stage) [1]: 59; NDVI (Normalized difference vegetative index) [1]: 0.471; NIR (Near infrared band reflectance) [1]: 4.18
C=CCOC(=O)OC1=C(c2c(C)cc(C)cc2C)C(=O)N(C)C12CCN(OC)CC2 [T1.070, wherein G is COOCH2CH═CH2] |  | 10.2 | 2.1 | 
CCOC(=O)OC1=C(c2c(C)cc(Br)cc2CC)C(=O)N(C)C12CCN(OC)CC2 [T1.078, wherein G is COOCH2CH3] |  | 8.1 | 1.7 | 
CCOC(=O)OC1=C(c2c(C)cc(Cl)cc2OC)C(=O)N(C)C12CCN(OC)CC2 [T1.096, wherein G is COOCH2CH3] |  | 6.6 | 1.4 | 
CCOC(=O)OC1=C(c2c(C)cc(Cl)cc2C)C(=O)NC12CCN(OC)CC2 [T1iii.067, wherein G is COOCH2CH3] |  | 15.5 | 3.9 | 
CCOC(=O)OC1=C(c2c(C)cc(C)cc2CC)C(=O)NC12CCN(OC)CC2 [T1iii.071, wherein G is COOCH2CH3] |  | 8.6 | 1.8 | 
CCOC(=O)OC1=C(c2c(C)cc(C)cc2OC)C(=O)NC12CCN(OC)CC2 [T1iii.072, wherein G is COOCH2CH3] |  | 8.9 | 2.1 | 
CCOC(=O)OC1=C(c2c(C)cc(Cl)cc2OC)C(=O)NC12CCN(OC)CC2 [T1iii.096, wherein G is COOCH2CH3] |  | 18.4 | 3.8 | 
CCOC(=O)OC1=C(c2c(C)cc(C)cc2OC)C(=O)N(OCC)C12CCN(OC)CC2 [T3ii.072, wherein G is COOCH2CH3] |  | 10.6 | 2.2 | 
CCOC(=O)OC1=C(c2cc(C)ccc2C)C(=O)N(OCOC)C12CCN(OC)CC2 [T20ii.030, wherein G is CO2Et] |  |  |  | BBCH (plant growth stage) [1]: 59; NDVI (Normalized difference vegetative index) [1]: 0.522; NIR (Near infrared band reflectance) [1]: 4.45
CCOC(=O)OC1=C(c2c(C)cc(Br)cc2CC)C(=O)N(OC2CCCO2)C12CCN(OC)CC2 (centres unmarked) [T25N.078, wherein G is COOCH2CH3] |  | 14.5 | 3.0 | 
